Test results from patent US10273442B1, “Device and method for concomitant ejection and suction of perfusate” (priority 2015, dated 2019).
“Also recorded” adds a separate entry of the source.

What was measured:
Format in all cases: cell-based, rat
[1] = test system: LII stellate cells in MEA; assay: Spontaneous postsynaptic currents (sEPSCs, sIPSCs) in LII stellate cells of MEA after focal application of compounds to PrS via CESOP, voltage-clamp in acute brain slices; conditions: for percentage reduction in sIPSC frequency following application of the drug: NBQX 10 μM focally to PrS; for average sIPSC frequency / average sEPSC amplitude / average sEPSC frequency: glutamate 100 μM then NBQX 10 μM focally to PrS, mean ±SEM; for average sIPSC frequency: holding 0 mV; for average sEPSC amplitude / average sEPSC frequency: holding -70 mV
Experimental: (§1) Sprague-Dawley rats (male; n=11 epileptic, n=15 controls) from postnatal (P) days 40 to 88 were used in this study. All experiments were carried out in accordance with the National Institute of Health Guide for the Care and Use of Laboratory Animals and were approved by the Florida State University Institutional Animal Care and Use Committee. Rats were made epileptic according to previously described protocols for bringing up the pilocarpine model of TLE. Briefly, rats were treated with pilocarpine (P41, 141±2 g; 380 mg/kg i.p.) 20 min after atropine methylbromide (5 mg/kg i.p.). Diazepam (10 mg/kg i.p.) was administered 2 h after the onset of status epilepticus and repeated as needed. Following recovery from status epilepticus, rats were video monitored (40 h/wk) for spontaneous seizures. Animals used for electrophysiological experiments were confirmed epileptic, displaying frank spontaneous recurrent seizures scored 3 or greater on the Racine scale (Racine 1972) on two or more observations during the 40 h/wk video monitoring. Recordings from epileptic animals were made on average 39 days (P80) post status epilepticus (range: 25-47 days, P66-P88), with initial seizures observed between 5 and 29 days post status. Control groups consisted of naive rats that were on average P70 (range: P49-P91).
(§2) Rats were deeply anesthetized with urethane (1.5 g/kg ip) before being decapitated. Following decapitation, the brain was quickly removed from the skull before being placed in a chilled (4° C.) low-Ca^2+, low-Na^+“cutting solution” containing (in mM) 230 sucrose, 10 D-glucose, 26 NaHCO3, 2.5 KCl, 1.25 NaH2PO4, 10 MgSO4, and 0.5 CaCl2 equilibrated with a 95%-5% mixture of O2 and CO2. After removing the cerebellum and rostral half of the brain, a 10-15° semi-horizontal cut (in a ventral-caudal to dorsal-rostral plane) was made to the dorsal part of the cortex with respect to the horizontal plane (FIG. 2E). The cut dorsal surface of the brain was adhered to the cutting platform using cyanoacrylate glue. This cutting angle was chosen to increase the likelihood of preserving PrS projections to MEA in acute brain slices, because PrS projections tend to travel to the MEA in a lateroventral orientation. Semi-horizontal slices (400 μm) were prepared using a microslicer (VT1000S, Leica, Germany) in the chilled cutting solution and allowed to equilibrate in oxygenated artificial cerebrospinal fluid (aCSF) containing (in mM) 126 NaCl, 26 NaHCO3, 3 KCl, 1.25 NaH2PO4, 2 MgSO4, 2 CaCl2, 0.25 L-Glutamine, and 10 D-glucose (pH 7.4), first at 32° C. for 1 h and subsequently at room temperature before being transferred to the recording chamber.
(§3) Recordings were obtained at 32±1° C. from neurons in LII and LIII of MEA under Nomarski optics (Zeiss) using a visualized infrared setup (Hamamatsu) that enabled identification of their location within the various lamina. On average, 3.5±0.4 (range: 2-5) and 3.6±0.4 (range: 2-6) cells were recorded per animals in the control and epileptic groups respectively. Patch electrodes were pulled from borosilicate glass (1.5 mm outer diameter, 0.75 mm inner diameter, 3-6 MΩ). The internal solution for voltage-clamp experiments contained (in mM): 120 cesium gluconate, 1 MgCl2, 1 CaCl2, 11 CsCl, 10 HEPES, 2 NaATP, 0.3 NaGTP, 1 QX-314, 11 EGTA, and 20 biocytin (pH 7.3, corrected with Cs-OH; final osmotic concentration, 290 mOsm). The internal solution for current-clamp experiments contained (in mM): 105 potassium gluconate, 30 KCl, 10 HEPES, 10 phosphocreatine, 4 MgATP, 0.3 GTP (pH adjusted to 7.3 with KOH; final osmotic concentration, 300 mOsm).
(§4) Recording conditions were the same for control and epileptic animals. Slices were maintained in oxygenated (95% O2-5% CO2) aCSF, flowing at a rate of 2 ml/min. Drugs were applied focally to superficial PrS via the CESOP technique (FIGS. 4A-4E, described below). […]

[2] = test system: LIII pyramidal neurons in MEA; assay: Spontaneous postsynaptic currents (sEPSCs, sIPSCs) in LIII pyramidal neurons of MEA after focal application of compounds to PrS via CESOP, voltage-clamp in acute brain slices
Experimental: as §1, §2, §3, §4

RS cell in LIII of PrS = assay: Action potential firing of PrS neurons on local application via CESOP, current-clamp in acute brain slices; conditions: glutamate 100 μM, 3 min duration
[3] = epileptic rats (pilocarpine model of TLE)
[4] = epileptic conditions, glutamate 100 μM then NBQX 10 μM focally to PrS, holding 0 mV, mean ±SEM

| SMILES | percentage reduction in sIPSC frequency following application of the drug ([1]; control animals) | average sIPSC frequency ([1]; control rats) | average sEPSC amplitude ([1]; control rats) | average sEPSC frequency ([1]; control rats) | average sIPSC frequency [1, 3] | average sEPSC amplitude [1, 3] | average sEPSC frequency [1, 3] | percentage reduction in sIPSC frequency following application of the drug ([1]; epileptic rats) | sIPSC frequency ([2]; control animals, glutamate 100 μM then NBQX 10 μM focally to PrS, holding 0 mV, mean ±SEM) | reduction in sEPSC frequency following application of NBQX ([2]; control conditions, NBQX 10 μM focally to PrS) | average sEPSC frequency ([2]; control rats, glutamate 100 μM then NBQX 10 μM focally to PrS, holding -70 mV, mean ±SEM) | average sIPSC amplitude [2, 4] | average sIPSC frequency [2, 4] | sEPSC frequency ([2]; epileptic rats (pilocarpine model of TLE), glutamate 100 μM then NBQX 10 μM focally to PrS, holding -70 mV, mean ±SEM) | action potential discharge of PrS neurons in response to local application (RS cell in LIII of PrS) |
| --- | --- | --- | --- | --- | --- | --- | --- | --- | --- | --- | --- | --- | --- | --- | --- |
| NS(=O)(=O)c1cccc2c1c([N+](=O)[O-])cc1[nH]c(=O)c(=O)[nH]c12 [NBQX, 2,3-dioxo-6-nitro-1,2,3,4-tetrahydrobenzo[f]quinoxaline-7-sulfonamide] | 22% | 11.1±1.4 Hz | 18±1 pA | 5.6±1 Hz | 7.5±1 Hz | 21±2 pA | 4.9±0.8 Hz | 11% | 4.5±0.3 Hz | 30% | 4.6±0.6 Hz | 30±2 pA | 6.8±0.9 Hz | 10.5±2 Hz | – |
| N[C@@H](CCC(=O)[O-])C(=O)[O-].[Na+].[Na+] [glutamate, Sodium glutamate] | – | – | – | – | – | – | – | – | – | – | – | – | – | – | sustained action potential discharge; also recorded: reliably evokes action potential firing |
